Data from paper PMC4669722, “Antitumour potential of BPT: a dual inhibitor of cdk4 and tubulin polymerization” (Cell Death & Disease, 2015).
“Also recorded” adds a separate entry of the source.

Key:
[1] = system: BNL CL2 (mouse embryonic normal hepatic cells); experiment: Flow cytometric cell cycle analysis, BNL CL2; format: cell-based; conditions: BNL CL2, 48 h, IC50 and IC70 concentrations
Procedure: (§1) The untreated (control) and treated (with test compounds) cells were harvested by trypsinization, washed once with PBS and then fixed in 70% chilled (−20 °C) ethanol for minimum 1 h. After the fixation step, cells were centrifuged for 5 min at 3000 × g at room temperature, and the pellet was suspended in PBS containing 50 μg/ml propidium iodide (Sigma-Aldrich, Dorset, UK; cat. no. P-4170) and 0.5 mg/ml DNase-free ribonuclease (Sigma-Aldrich; cat. no. R-5503). The cells were stained for 1 h in the dark at 4 °C. Cell cycle analysis was performed on the Beckman Coulter (Epics Altra) fluorescence-activated cell sorter (Beckman Coulter UK Ltd, Buckinghamshire, UK). To gate all the events that represent single cells, and not cell doublets or cell clumps, the following analyses were performed on the samples. Cytograms of propidium iodide fluorescence peak signal versus integrated fluorescence or the linear signal were plotted. All data points on the straight line were isolated in a single gate and the gated data was further used for plotting a histogram that represents a complete cell cycle. The total number of events was not allowed to exceed 200 events per s. Data acquisition was stopped after a minimum of 10 000 events had been collected.

Plk3 = Plk3 (Homo sapiens, UniProt Q9H4B4); experiment: Kinase profiling (Millipore), Plk3; format: biochemical
Chain of Plk3 (Q9H4B4 whole entry): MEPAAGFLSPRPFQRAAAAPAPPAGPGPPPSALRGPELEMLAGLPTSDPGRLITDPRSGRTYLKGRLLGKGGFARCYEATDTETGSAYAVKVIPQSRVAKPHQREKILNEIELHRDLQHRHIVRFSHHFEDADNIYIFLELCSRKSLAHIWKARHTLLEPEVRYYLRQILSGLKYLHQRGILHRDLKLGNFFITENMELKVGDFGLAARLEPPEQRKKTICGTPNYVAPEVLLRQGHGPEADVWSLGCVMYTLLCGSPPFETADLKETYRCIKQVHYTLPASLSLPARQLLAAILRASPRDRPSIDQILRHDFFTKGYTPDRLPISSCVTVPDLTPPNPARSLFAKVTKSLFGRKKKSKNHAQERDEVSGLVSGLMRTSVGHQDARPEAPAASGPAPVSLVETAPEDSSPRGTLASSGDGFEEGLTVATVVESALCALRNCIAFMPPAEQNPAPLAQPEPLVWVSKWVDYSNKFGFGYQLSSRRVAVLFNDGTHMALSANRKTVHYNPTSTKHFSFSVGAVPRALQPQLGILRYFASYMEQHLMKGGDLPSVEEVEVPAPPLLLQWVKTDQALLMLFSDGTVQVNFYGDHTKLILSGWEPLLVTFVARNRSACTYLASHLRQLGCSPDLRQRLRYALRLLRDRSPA
Procedure: (§2) The in vitro kinase assays for testing against Cdk4-cyclin D1, Cdk2-cyclin A, Cdk1-cyclin B1 and Cdk9-cyclin T1 were performed in-house. The methodology and results have been reported previously.[20], [30], [31], [32], [45] The kinase profiling for 58 representative kinases was carrried out commercially at Millipore Bioscience Division, Livingston, UK.

[2] = system: panel of 58 representative kinases; experiment: Kinase profiling, panel of 58 representative kinases; format: biochemical; conditions: at 10 μM
Procedure: as §2

A549 cells = experiment: Flow cytometric cell cycle analysis, A549; format: cell-based, human; conditions: 24 h
Procedure: as §1

HCT-116 tumours = experiment: HCT-116 xenograft efficacy in SCID mice; format: in vivo; conditions: 100 mpk intraperitoneal, 9 days, versus vehicle, P<0.05
Procedure: A group of 60 SCID (SCID strain-CBySmn.CB17-Prkdc^scid/J; The Jackson Laboratory, Bar harbor, ME, USA; Stock no. 001803) male mice weighing 18–25 g and 6–8 weeks old were used for the studies. Human colon carcinoma, HCT-116 (ATCC; cat. no. CCL-247) cells were grown in McCoy's 5A medium supplemented with 10% FBS (Sigma-Aldrich). The cultured cells were injected subcutaneously into the dorsal side of SCID mice at the dose of 6.6 × 10^6 cells in 0.2 ml of suspension. When the tumour growth reached to about 4–6 mm in diameter (over about 5 days), the animals were randomly divided into eight groups, each containing seven mice. The treatments were continued for 9 consecutive days intraperitoneally. Flavopiridol (2.5 mpk) was used as a positive control in this study. Tumour size was recorded at 2–5 day intervals. Tumour weight (mg) was estimated according to the formula for a prolate ellipsoid: (length (mm) × width (mm)^2) × 0.5) assuming specific gravity to be one and π to be 3. Tumour growth in compound treated animals is calculated as T/C (treated/control) × 100% and growth inhibition percent (% GI) was (100−% T/C).[48], [49], [50]

NCI-H460 tumours = experiment: NCI-H460 xenograft efficacy in SCID mice; format: in vivo; conditions: 100 mpk intraperitoneal, 9 days
Procedure: A group of 65 SCID (SCID strain-CBySmn.CB17-Prkdc^scid/J; The Jackson Laboratory; Stock no. 001803) female mice weighing 15–24 g and 6–8 weeks old were used. Human non-small-cell lung carcinoma, NCI-H460 (ATCC; cat. no. HTB-177) cells grown in RPMI-1640 medium supplemented with 10% FBS (Sigma-Aldrich). The cultured cells were injected subcutaneously into the dorsal side of SCID mice at a tune of 5.3 × 10^6 cells in 0.2 ml of suspension. When the tumour growth reached about 4–6 mm in diameter (about 6 days), the animals were randomly divided into eight groups, each containing 6 or 7 mice. The treatments were continued for 9 consecutive days intraperitoneally. Flavopiridol (2.5 mpk) was used as a positive control in this study. Tumour size was recorded at 2–5 day intervals. Tumour weight (mg) was estimated according to the formula for a prolate ellipsoid: (length (mm) × width (mm)^2) × 0.5) assuming specific gravity to be one and π to be 3. Tumour growth in compound treated animals is calculated as T/C (treated/control) × 100% and growth inhibition percent (% GI) was (100−% T/C).[48], [49], [50]

Cdk5-p35 = Cdk5-p35 (Homo sapiens, UniProt Q00535); experiment: Kinase profiling (Millipore), Cdk5-p35; format: biochemical
Chain of Cdk5-p35 (Q00535 whole entry): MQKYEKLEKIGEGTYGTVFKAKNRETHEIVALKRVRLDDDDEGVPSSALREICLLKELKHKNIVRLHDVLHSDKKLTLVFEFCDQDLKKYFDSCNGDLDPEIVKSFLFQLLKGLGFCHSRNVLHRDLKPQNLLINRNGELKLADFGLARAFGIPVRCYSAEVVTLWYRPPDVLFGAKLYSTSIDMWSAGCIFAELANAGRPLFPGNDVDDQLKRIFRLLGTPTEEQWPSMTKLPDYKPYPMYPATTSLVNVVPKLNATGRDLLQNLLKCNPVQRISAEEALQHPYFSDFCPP
Chain of Cdk5-p35 (Q15078 whole entry partner): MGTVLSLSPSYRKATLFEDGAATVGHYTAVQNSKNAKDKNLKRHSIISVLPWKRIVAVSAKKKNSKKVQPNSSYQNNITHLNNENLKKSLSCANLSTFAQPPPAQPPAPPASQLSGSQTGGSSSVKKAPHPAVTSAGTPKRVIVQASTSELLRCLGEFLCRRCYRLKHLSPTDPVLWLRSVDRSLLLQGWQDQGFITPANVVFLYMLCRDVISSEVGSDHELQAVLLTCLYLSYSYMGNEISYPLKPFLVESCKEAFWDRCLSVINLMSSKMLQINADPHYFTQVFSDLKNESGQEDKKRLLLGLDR
Procedure: as §2

pBluescript plasmid DNA = experiment: Topoisomerase I catalysed DNA relaxation or unwinding assay; format: biochemical
Procedure: For assay, 5 nM supercoiled pBluescript d-s plasmid DNA and 10 U of topoisomerase-I active enzyme were used in each reaction well. To ensure that the assay determines the DNA-intercalating property of compounds and not topoisomerase I inhibition, in a parallel experiment relaxed plasmid DNA was first prepared by treating with topo I enzyme for 30 min and then used as an initial substrate for the assay. DNA relaxation assays were performed in the presence or absence of compounds in 40 μl of DNA unwinding assay buffer. After 30 min incubation at 37 °C, reaction mixtures were treated with 3 μl of 250 mM EDTA and extracted with phenol/chloroform. The DNA was dissolved in tris-EDTA buffer, pH 8.0. The samples (20 μl) were treated with 2 μl of 2.5% SDS, mixed with 2.5 μl agarose gel loading buffer (10x) and subjected to electrophoresis on a 0.8% agarose gel without EtBr (separating the DNA in the presence of EtBr would convert the relaxed DNA into the supercoiled form). After the electrophoretic separation, DNA bands were stained with 1 μg/ml EtBr and visualized using a UV illuminator. The compounds were compared with fascaplysin, which is a known DNA-intercalating molecule. Camptothecin, which is a known topoisomerase- I inhibitor, was used to test the activity and inhibition of enzyme.

Cdk2-cyclin A = Cdk2-cyclin A (Homo sapiens, UniProt P24941); experiment: In vitro kinase assay, Cdk2-cyclin A (in-house); format: biochemical; conditions: three independent experiments; read-out: IC50 (mean±S.D.), Cdk2-cyclin A
Procedure: as §2

For `O=C(c1ccccc1-c1ccccc1)N1CCc2c([nH]c3ccccc23)C1` [BPT, 2-(biphenyl-2-carbonyl)-2,3,4,9-tetrahydro-1H-pyrido[3,4-b]indole], the “cells detected in the sub-G1 phase” value [1] was < 10%, the “normal cells in the G2/M phase” value [1] was “More than 50%” and the IC50 (Plk3) was > 10 µM. The “inhibition of other kinases (panel of 58)” value [2] was “no inhibition against other kinases; also recorded: does not inhibit any kinase to any appreciable degree”, the “cells in G2/M” value (A549 cells; A549, IC50 concentration) was 82% and the “cells in G0/G1” value (A549 cells; A549, IC70 concentration) was 15%. For the same compound, the “cells in G2/M” value (A549 cells; A549, IC70 concentration) was 59%, the “cells in Sub G1 (apoptotic)” value (A549 cells; A549, IC70 concentration) was 13% and the tumour growth inhibition (HCT-116 tumours) was ~ 80%. For the same compound, the antitumour efficacy (NCI-H460 tumours) was “high efficacy”, the IC50 (Cdk5-p35) was > 10 µM and the “state of relaxed (negatively supercoiled) plasmid DNA after treatment” value (pBluescript plasmid DNA; relaxed pBluescript DNA as substrate, BPT up to 100 μM, fascaplysin 1 μM) was “remained relaxed”. The “hindrance of topoisomerase-I catalysed DNA relaxation” value (pBluescript plasmid DNA; supercoiled pBluescript DNA, fascaplysin 10 and 1 µM, BPT 10 and 100 µM) was “does not hinder DNA relaxation process; also recorded: does not intercalate” and the IC50 (Cdk2-cyclin A) was 831 ± 15.5 µM.
